Measured values reported in publication PMC8277928, “Influence of Terminal Functionality on the Crystal Packing Behaviour and Cytotoxicity of Aromatic Oligoamides” (Frontiers in Chemistry, 2021).
Like-named read-outs stand apart in the source and are kept apart here.

Legend:
[1] = tested on: PNT-2 non-malignant prostate cell line (immortalized with SV40); test: MTT cytotoxicity (chemosensitivity) assay, 96 h, non-malignant cells; assay type: cell-based, human; conditions: 37°C, 5% CO2, read-out: IC50 values (μM) ± SD, PNT-2
Procedure: A SI value >1 indicates increased selectivity for the cancerous cell line over the non-malignant one, whilst a SI value <1 indicates the inverse (i.e., increased selectivity for the non-malignant cell line over the cancerous one). […]
(§1) In vitro chemosensitivity assays were performed against human ovarian carcinoma (A2780), cisplatin-resistant human ovarian carcinoma (A2780cisR) and human breast adenocarcinomas (MCF-7 and MDA-MB-231). Additionally, growth inhibitory effects were also tested against non-malignant prostate cell line immortalised with SV40, PNT-2. All cell lines were provided by the Institute of Cancer Therapeutics, University of Bradford and were routinely maintained as monolayer cultures in RPMI 1640 media supplemented with 10% foetal calf serum, sodium pyruvate (1 mM) and L-glutamine (2 mM). All assays were conducted in 96-well round bottom plates, with control lanes for media and 100% cell growth. Cell concentrations of 1 x 10^4 cells/mL were used, and 100 µL (or 100 µL media in control lane 1) of cell suspension were incubated for 24 h at 37 °C and 5% CO2 prior to drug exposure.
(§2) 100 mM stock solutions, which were further diluted with complete me dia to provide a range of final concentrations. After 24 h, 100 μL of the drug/media solutions were added to the plates (columns 3-12 drug concentrations, with 100 µL media in the control lanes), and then the plates incubated for 96 h at 37°C and 5% CO2. All drug solutions were added to the plates so that the final DMSO concentrations were <0.1% (v/v) in all cases. After 96 h, 3-(4,5-dimethylthiazol-2-yl)-2,5-diphenyltetrazolium bromide (MTT) (20 µL, 5 mg/mL) was added to each well and incubated for 3 h at 37 °C and 5% CO2. All solutions were then removed via pipette, 150 μL DMSO added to each well and the formazan crystals mixed thoroughly. A Thermo Scientific Multiscan EX microplate photometer was used to measure the absorbance of each well at 540 nm. Percentage cell viabilities were determined on a logarithmic scale, and the half maximal inhibitory concentration (IC50) determined from a plot of % cell survival versus concentration (µM). Each of the experiments was performed as duplicate technical repeats and triplicate experimental repeats, with mean values as the IC50 ± Standard Deviation (SD).

[2] = tested on: A2780 cisplatin-sensitive ovarian carcinoma cells; test: MTT cytotoxicity (chemosensitivity) assay, 96 h; assay type: cell-based, human; conditions: for IC50: 96 h incubation, MTT, 37°C, 5% CO2, read-out: IC50 values (μM) ± SD, A2780; for Selectivity Index (SI), A2780 compared to PNT-2: IC50 PNT-2 divided by IC50 A2780, * = minimum SI value
Procedure: (§3) The IC50 values were obtained via the MTT assay after a 96 h incubation period of each compound with the cells at 37°C and 5% CO2 (Table 2; Figure 6). […]
as §1, §2

[3] = tested on: MCF-7 breast adenocarcinoma cells; test: MTT cytotoxicity (chemosensitivity) assay, 96 h; assay type: cell-based, human; conditions: for IC50: 96 h incubation, MTT, 37°C, 5% CO2, read-out: IC50 values (μM) ± SD, MCF-7; for Selectivity Index (SI), MCF-7 compared to PNT-2: IC50 PNT-2 divided by IC50 MCF-7, * = minimum SI value
Procedure: as §3, §1, §2

[4] = tested on: A2780cisR cisplatin-resistant ovarian carcinoma cells; test: MTT cytotoxicity (chemosensitivity) assay, 96 h; assay type: cell-based, human; conditions: for IC50: 96 h incubation, MTT, 37°C, 5% CO2, read-out: IC50 values (μM) ± SD, A2780cisR; for Selectivity Index (SI), A2780cisR compared to PNT-2: IC50 PNT-2 divided by IC50 A2780cisR, * = minimum SI value
Procedure: as §3, §1, §2

[5] = tested on: MDA-MB-231 breast adenocarcinoma cells; test: MTT cytotoxicity (chemosensitivity) assay, 96 h; assay type: cell-based, human; conditions: for IC50: 96 h incubation, MTT, 37°C, 5% CO2, read-out: IC50 values (μM) ± SD, MDA-MB-231; for Selectivity Index (SI), MDA-MB-231 compared to PNT-2: IC50 PNT-2 divided by IC50 MDA-MB-231, * = minimum SI value
Procedure: as §3, §1, §2

[6] = tested on: A2780, A2780cisR, MCF-7 and MDA-MB-231 cells; test: MTT cytotoxicity assay, 96 h, range over all cancer cell lines; assay type: cell-based; conditions: Homo sapiens, read-out: IC50 values against all cell lines (range)
Procedure: as §3
as §1, with “Cell concentrations of 1 x 10^4 cells/mL were used, and 100 µL (or 100 µL media in control lane 1) of cell suspension were incubated for 24 h at 37 °C and 5% CO2 prior to drug exposure.” left out
100 mM stock solutions, which were further diluted with complete me dia to provide a range of final concentrations. […] A Thermo Scientific Multiscan EX microplate photometer was used to measure the absorbance of each well at 540 nm. Percentage cell viabilities were determined on a logarithmic scale, and the half maximal inhibitory concentration (IC50) determined from a plot of % cell survival versus concentration (µM). […]

[7] = Homo sapiens, PNT2, 96 h incubation

O=C1[O][Pt]2([NH][C@@H]3CCCC[C@H]3[NH]2)[O]C1=O [OXA, oxaliplatin, reference compound]
IC50 ([1]; 96 h incubation): 1.3 ± 0.2 µM
IC50 [2]: 0.505 ± 0.002 µM
Selectivity Index (SI), A2780 compared to PNT-2 [2]: 2.6
IC50 [3]: 2.6 ± 0.2 µM
Selectivity Index (SI), MCF-7 compared to PNT-2 [3]: 0.5
IC50 [4]: 2.09 ± 0.03 µM
Selectivity Index (SI), A2780cisR compared to PNT-2 [4]: 0.6
IC50 [5]: 2.5 ± 0.6 µM
Selectivity Index (SI), MDA-MB-231 compared to PNT-2 [5]: 0.5

CC(=O)Nc1ccccc1NC(=O)c1cccc(C(=O)Nc2ccccc2NC(C)=O)n1 [Compound 1]
IC50 [1, 7]: > 100 µM
IC50 ([2]; Homo sapiens, A2780): 77 ± 5 µM
Selectivity Index (SI), A2780 compared to PNT-2 [2]: > 1.3
IC50 ([3]; Homo sapiens, MCF7): > 100 µM
IC50 ([4]; Homo sapiens, A2780cisR): > 100 µM
IC50 ([5]; Homo sapiens, MDA-MB-231): 63 ± 4 µM
Selectivity Index (SI), MDA-MB-231 compared to PNT-2 [5]: > 1.6
IC50 [6]: ≥ 63 µM

[NH2][Pt]([NH2])([Cl])[Cl] [CDDP, cisplatin, reference compound]
IC50 ([1]; 96 h incubation): 8.5 ± 0.4 µM
IC50 [2]: 1.3 ± 0.1 µM
IC50 [3]: 1.5 ± 0.2 µM
Selectivity Index (SI), MCF-7 compared to PNT-2 [3]: 5.6
IC50 [4]: 14 ± 1 µM
Selectivity Index (SI), A2780cisR compared to PNT-2 [4]: 0.6
IC50 [5]: 3.07 ± 0.02 µM
Selectivity Index (SI), MDA-MB-231 compared to PNT-2 [5]: 2.8

Nc1ccccc1NC(=O)c1cccc(C(=O)Nc2ccccc2N)n1 [Compound 3]
IC50 [1, 7]: > 100 µM
cytotoxicity in words, A2780 ([2]; 96 h MTT): non-toxic
IC50 ([2]; Homo sapiens, A2780): > 100 µM
IC50 ([3]; Homo sapiens, MCF7): > 100 µM
IC50 ([4]; Homo sapiens, A2780cisR): 61 ± 2 µM
Selectivity Index (SI), A2780cisR compared to PNT-2 [4]: > 1.6
IC50 ([5]; Homo sapiens, MDA-MB-231): > 100 µM

CC(C)(C)OC(=O)Nc1ccccc1NC(=O)c1cccc(C(=O)Nc2ccccc2NC(=O)OC(C)(C)C)n1 [Compound 2]
IC50 [1, 7]: > 100 µM
IC50 ([2]; Homo sapiens, A2780): 24 ± 0.9 µM
Selectivity Index (SI), A2780 compared to PNT-2 [2]: > 4.2
cytotoxicity in words, MCF-7 ([3]; 96 h MTT): moderate to non-cytotoxic
IC50 ([3]; Homo sapiens, MCF7): 84 ± 3 µM
Selectivity Index (SI), MCF-7 compared to PNT-2 [3]: > 1.2
cytotoxicity in words, A2780cisR ([4]; 96 h MTT): moderate to non-cytotoxic
IC50 ([4]; Homo sapiens, A2780cisR): > 100 µM
cytotoxicity in words, MDA-MB-231 ([5]; 96 h MTT): moderate to non-cytotoxic
IC50 ([5]; Homo sapiens, MDA-MB-231): 69 ± 3 µM
Selectivity Index (SI), MDA-MB-231 compared to PNT-2 [5]: > 1.4

N.N.O=C([O-])C1(C(=O)[O-])CCC1.[Pt+2] [CARB, carboplatin, reference compound]
IC50 ([1]; 96 h incubation): 27 ± 2 µM
IC50 [2]: 17 ± 1 µM
IC50 [3]: > 100 µM
Selectivity Index (SI), MCF-7 compared to PNT-2 [3]: > 0.3
IC50 [4]: > 100 µM
Selectivity Index (SI), A2780cisR compared to PNT-2 [4]: > 0.3
IC50 [5]: 33 ± 2 µM
Selectivity Index (SI), MDA-MB-231 compared to PNT-2 [5]: 0.8
